Test results: PubChem BioAssay AID1259407 (Chemical Carcinogenesis Research Information System (CCRIS), 2018)
Activity calls are given as the source filed them. The rule behind the calls is not given here.

Tested on: CCRIS mutagenicity, Ames/micronucleus/aberration tests
Assay: CCRIS mutagenicity studies

SMILES: CN(C)N=O
- mutagenic call (Test System: AMES SALMONELLA TYPHIMURIUM, Strain/Indicator: TA1535ER, Metabolic Activation: NONE, Method: STANDARD PLATE): inactive; negative
- mutagenic call (Test System: AMES SALMONELLA TYPHIMURIUM, Strain/Indicator: TA1975, Metabolic Activation: RAT, LIVER, S-9, AROCLOR 1254, Method: PREINCUBATION): active; positive
- mutagenic call (Test System: AMES SALMONELLA TYPHIMURIUM, Strain/Indicator: TA2410, Metabolic Activation: NONE, Method: HOST-MEDIATED): active; positive
- mutagenic call (Test System: AMES SALMONELLA TYPHIMURIUM, Strain/Indicator: TA2638, Metabolic Activation: NONE, Method: PREINCUBATION): active; positive
- mutagenic call (Test System: AMES SALMONELLA TYPHIMURIUM, Strain/Indicator: TA2659, Metabolic Activation: NONE, Method: PREINCUBATION): inactive; negative
- mutagenic call (Test System: AMES SALMONELLA TYPHIMURIUM, Strain/Indicator: TA2678, Metabolic Activation: NONE, Method: HOST-MEDIATED): active; positive
- mutagenic call (Test System: AMES SALMONELLA TYPHIMURIUM, Strain/Indicator: YG7100, Metabolic Activation: S-9, Method: PREINCUBATION): active; positive
- mutagenic call (Test System: AMES SALMONELLA TYPHIMURIUM, Strain/Indicator: YG7104, Metabolic Activation: RAT LIVER S-9, ETHANOL (4%), Method: PREINCUBATION): active; positive
- mutagenic call (Test System: AMES SALMONELLA TYPHIMURIUM, Strain/Indicator: YG7104, Metabolic Activation: S-9, Method: PREINCUBATION): active; positive
- mutagenic call (Test System: AMES SALMONELLA TYPHIMURIUM, Strain/Indicator: YG7104ER, Metabolic Activation: NONE, Method: STANDARD PLATE): active; positive
- mutagenic call (Test System: AMES SALMONELLA TYPHIMURIUM, Strain/Indicator: YG7108, Metabolic Activation: RAT LIVER S-9, ETHANOL (4%), Method: PREINCUBATION): active; positive
- mutagenic call (Test System: AMES SALMONELLA TYPHIMURIUM, Strain/Indicator: YG7108, Metabolic Activation: S-9, Method: PREINCUBATION): active; positive
- mutagenic call (Test System: AMES SALMONELLA TYPHIMURIUM, Strain/Indicator: YG7108E, Metabolic Activation: NONE, Method: STANDARD PLATE): inactive; negative
- mutagenic call (Test System: AMES SALMONELLA TYPHIMURIUM, Strain/Indicator: YG7108ER, Metabolic Activation: NONE, Method: STANDARD PLATE): active; positive
- mutagenic call (Test System: AMES SALMONELLA TYPHIMURIUM, Strain/Indicator: YG7108R, Metabolic Activation: NONE, Method: STANDARD PLATE): inactive; negative
- mutagenic call (Test System: AMES SALMONELLA TYPHIMURIUM, Strain/Indicator: YG7112, Metabolic Activation: S-9, Method: PREINCUBATION): active; positive
- mutagenic call (Test System: AMES SALMONELLA TYPHIMURIUM, Strain/Indicator: YG7113, Metabolic Activation: S-9, Method: PREINCUBATION): active; positive
- mutagenic call (Test System: AMES SALMONELLA TYPHIMURIUM, Strain/Indicator: YG7119, Metabolic Activation: S-9, Method: PREINCUBATION): inactive; negative
- mutagenic call (Test System: CHINESE HAMSTER V-79, Strain/Indicator: V-79 (HPRT)/6-THIOGUANINE, Metabolic Activation: RAT, HEPATOCYTES): active; positive
- mutagenic call (Test System: CHINESE HAMSTER V-79, Strain/Indicator: V-79 (HPRT)/6-THIOGUANINE, Metabolic Activation: RAT, HEPATOMA, H4IIE CELLS): active; positive
- mutagenic call (Test System: CHINESE HAMSTER V-79, Strain/Indicator: V-79 (HPRT)/6-THIOGUANINE, Metabolic Activation: RAT, LIVER, S-9, AROCLOR 1254): active; positive
- mutagenic call (Test System: CHINESE HAMSTER V-79, Strain/Indicator: V-79/6-THIOGUANINE, Metabolic Activation: NONE, Method: STANDARD PLATE): inactive; negative
- mutagenic call (Test System: CHINESE HAMSTER V-79, Strain/Indicator: V-79/6-THIOGUANINE, Metabolic Activation: RAT, HEPATOCYTES, BUTYLATED HYDROXYANISOLE, Method: STANDARD PLATE): active; positive
- mutagenic call (Test System: CHINESE HAMSTER V-79, Strain/Indicator: V-79/6-THIOGUANINE, Metabolic Activation: RAT, HEPATOCYTES, Method: STANDARD PLATE): active; positive
- mutagenic call (Test System: CHINESE HAMSTER V-79, Strain/Indicator: V-79/6-THIOGUANINE, Metabolic Activation: RAT, LIVER, S-15, PHENOBARBITAL, Method: STANDARD PLATE): active; positive
- mutagenic call (Test System: CHINESE HAMSTER V-79, Strain/Indicator: V-79/8-AZAGUANINE, Metabolic Activation: RAT, LIVER, S-15, PHENOBARBITAL, Method: STANDARD PLATE): active; positive
- mutagenic call (Test System: CHINESE HAMSTER V-79, Strain/Indicator: V-79/OUABAIN, Metabolic Activation: CELL-MEDIATED, Method: STANDARD PLATE): active; positive
- mutagenic call (Test System: CHINESE HAMSTER V-79, Strain/Indicator: V-79/OUABAIN, Metabolic Activation: FREE MICROSOMES M, LIVER, Method: STANDARD PLATE): active; positive
- mutagenic call (Test System: CHINESE HAMSTER V-79, Strain/Indicator: V-79/OUABAIN, Metabolic Activation: HAMSTER, HEPATOCYTES, Method: CELL-MEDIATED): active; positive
- mutagenic call (Test System: CHINESE HAMSTER V-79, Strain/Indicator: V-79/OUABAIN, Metabolic Activation: NONE, Method: STANDARD PLATE): inactive; negative
- mutagenic call (Test System: CHINESE HAMSTER V-79, Strain/Indicator: V-79/OUABAIN, Metabolic Activation: RAT, HEPATOCYTES, BUTYLATED HYDROXYANISOLE, Method: STANDARD PLATE): active; positive
- mutagenic call (Test System: CHINESE HAMSTER V-79, Strain/Indicator: V-79/OUABAIN, Metabolic Activation: RAT, HEPATOCYTES, Method: STANDARD PLATE): active; positive
- mutagenic call (Test System: CHO/HGPRT, Strain/Indicator: CHO-K1-BH4, Metabolic Activation: MOUSE, IN VIVO, Method: HOST-MEDIATED): active; positive
- mutagenic call (Test System: E. COLI, Strain/Indicator: WP2 (HCR), Metabolic Activation: RAT, LIVER, MICROSOMES, KANECHLOR 500, Method: PREINCUBATION): inactive; negative
- mutagenic call (Test System: E. COLI, Strain/Indicator: WP2, Metabolic Activation: NONE, Method: STANDARD PLATE): active; positive
- mutagenic call (Test System: E. COLI, Strain/Indicator: WP2, Metabolic Activation: RAT, LIVER, S-9, AROCLOR 1254, Method: STANDARD PLATE): active; positive
- mutagenic call (Test System: E. COLI, Strain/Indicator: WP2 UVRA, Metabolic Activation: HAMSTER, LIVER, S-9, AROCLOR 1254, Method: PREINCUBATION): inactive; negative
- mutagenic call (Test System: E. COLI, Strain/Indicator: WP2 UVRA, Metabolic Activation: HAMSTER, LIVER, S-9, Method: PREINCUBATION): inactive; negative
- mutagenic call (Test System: E. COLI, Strain/Indicator: WP2 UVRA, Metabolic Activation: MOUSE, LIVER, S-9, AROCLOR 1254, Method: PREINCUBATION): inactive; negative
- mutagenic call (Test System: E. COLI, Strain/Indicator: WP2 UVRA, Metabolic Activation: MOUSE, LIVER, S-9, Method: PREINCUBATION): inactive; negative
- mutagenic call (Test System: E. COLI, Strain/Indicator: WP2 UVRA, Metabolic Activation: NONE, Method: PREINCUBATION): inactive; negative
- mutagenic call (Test System: E. COLI, Strain/Indicator: WP2 UVRA, Metabolic Activation: NONE, Method: STANDARD PLATE): active; positive
- mutagenic call (Test System: E. COLI, Strain/Indicator: WP2 UVRA, Metabolic Activation: RAT, LIVER, S-9, AROCLOR 1254, Method: PREINCUBATION): inactive; negative
- mutagenic call (Test System: E. COLI, Strain/Indicator: WP2 UVRA, Metabolic Activation: RAT, LIVER, S-9, AROCLOR 1254, Method: STANDARD PLATE): active; positive
- mutagenic call (Test System: E. COLI, Strain/Indicator: WP2 UVRA, Metabolic Activation: RAT, LIVER, S-9, Method: PREINCUBATION): inactive; negative
- mutagenic call (Test System: MOUSE LYMPHOMA, Strain/Indicator: L5178Y (TK+/TK-), Metabolic Activation: RAT, LIVER, S-9, AROCLOR 1254, Method: SUSPENSION/PLATE): active; positive
- mutagenic call (Test System: MOUSE LYMPHOMA, Strain/Indicator: L5178Y (TK+/TK-), Metabolic Activation: RAT, LIVER, S-9, Method: SUSPENSION/PLATE): active; positive
- mutagenic call (Test System: UDS HUMAN CELLS, Strain/Indicator: THY INCORP (NON-S-PHASE), Metabolic Activation: NONE, Method: AUTORADIOGRAPHY): active; positive
- mutagenic call (Test System: UDS HUMAN CELLS, Strain/Indicator: THY INCORP (NON-S-PHASE), Metabolic Activation: RAT, LIVER, S-9, Method: AUTORADIOGRAPHY): active; positive
- mutagenic call (Test System: UDS HUMAN FIBROBLASTS, Strain/Indicator: THY INCORP (NON-S-PHASE), Metabolic Activation: NONE, Method: AUTORADIOGRAPHY): active; positive
- mutagenic call (Test System: UDS HUMAN FIBROBLASTS, Strain/Indicator: THY INCORP (NON-S-PHASE), Metabolic Activation: RAT, LIVER, S-9, Method: LIQUID SCINTILLATION COUNTING): active; positive
- mutagenic call (Test System: UDS MONKEY HEPATOCYTES, Strain/Indicator: THY INCORP, Metabolic Activation: AROCLOR 1254, Method: AUTORADIOGRAPHY): active; positive
- mutagenic call (Test System: UDS MONKEY HEPATOCYTES, Strain/Indicator: THY INCORP, Metabolic Activation: NONE, Method: AUTORADIOGRAPHY): active; positive
- mutagenic call (Test System: UDS MOUSE HEPATOCYTES, Metabolic Activation: NONE, Method: IN VIVO-IN VITRO): active; positive
- mutagenic call (Test System: UDS RAT HEPATOCYTES, Strain/Indicator: BROMODEOXYURIDINE INCORP, Metabolic Activation: NONE, Method: FLOW CYTOMETRIC ANALYSIS): active; positive
- mutagenic call (Test System: UDS RAT HEPATOCYTES, Strain/Indicator: THY INCORP, Metabolic Activation: NONE, Method: AUTORADIOGRAPHY): active; positive
- mutagenic call (Test System: UDS RAT HEPATOCYTES, Strain/Indicator: THY INCORP, Metabolic Activation: NONE, Method: LIQUID SCINTILLATION COUNTING): active; positive
- mutagenic call (Test System: UDS RODENT HEPATOCYTES, Strain/Indicator: THY INCORP (NON-S-PHASE), Method: AUTORADIOGRAPHY): active; positive
- mutagenic call (Test System: UDS RODENT HEPATOCYTES, Strain/Indicator: THY INCORP (NON-S-PHASE), Method: LIQUID SCINTILLATION COUNTING): active; positive
- mutagenic call (Test System: UDS, Strain/Indicator: HEPG2/THYMIDINE INCORPORATION, Metabolic Activation: NONE, Method: AUTORADIOGRAPHY): active; positive
